Columns and labels:
[1] = test system: Clostridium innocuum; experiment: Sensitivity of monoculture growth to Dox at various concentrations; assay type: cell-based; settings: C. innocuum
Text: (§1) The impacts of doxorubicin on a model community of gut bacteria was investigated in vitro in anaerobic batch culture. The synthetic community was composed of specific members predicted by genomic analysis to be sensitive to the therapeutic (i.e., Clostridium innocuum, Lactobacillus sp.), resistant via putative biotransformation (i.e., Escherichia coli, Klebsiella pneumoniae), or resistant via putative efflux (i.e., Enterococcus faecalis). Bacterial growth was monitored in monocultures by measuring OD600 and standard plate counts, and in mixed cultures by strain-targeted qPCR. Doxorubicin concentration was detected via absorbance assay.
(§2) The effects of Dox on gut-associated bacteria then were investigated in vitro in monoculture and in a synthetic community. […] Bacteria were identified and quantified after culture and treatment using qPCR.
(§3) (See FIGS. 4-8). […] (See FIGS. 4 and 5, respectively).
(§4) (See FIGS. 7 and 8, respectively).

[2] = test system: Lactobacillus; experiment: as above; assay type: cell-based, Lactobacillus spp.
Text: as §1, §2, §3, §4

[3] = test system: Enterococcus faecalis; experiment: Sensitivity or resistance of monoculture growth to Dox; assay type: cell-based; settings: E. faecalis
Text: as §1, §2, §3

[4] = test system: Escherichia coli; experiment: as above; assay type: cell-based; settings: E. coli
Text: as §1, §2, §3

[5] = test system: Klebsiella pneumoniae; experiment: as above; assay type: cell-based; settings: K. pneumoniae
Text: as §1, §2, §3

[6] = test system: Escherichia coli; experiment: Bacterial transformation of Dox, spectrophotometric assay of Dox concentration in culture / spent media
Text: (§5) A spectrophotometric assay to measure the concentration of active, unmodified, non-transformed doxorubicin was adopted.
(§6) A spectrophotometric assay to measure the concentration of doxorubicin was adopted. […] Our spectrophotometric assays measure the concentration of active, unmodified, non-transformed doxorubicin (Dox) via absorption at λ480 versus concentration of Dox μM.
(§7) We next tested the sensitivity or resistance of Escherichia coli, Klebsiella pneumonia, Enterococcus faecalis, Clostridium innocuum or Lactobacillus spp. to Dox at various concentrations. (See FIGS. 4-8). […] (See FIGS. 4 and 5, respectively).

[7] = test system: Klebsiella pneumoniae; experiment: as above
Text: as §5, §6, §7

[8] = test system: Enterococcus faecalis; experiment: as above
Text: as §5, §6

[9] = test system: C. innocuum; experiment: Growth of Dox-sensitive strain in 50% spent media of resistant strains; assay type: cell-based, Clostridium innocuum
Procedure: (§8) We previously observed that a Dox concentration as low as 10 μM can inhibit the growth of C. innocuum and Lactobacillus. (See FIGS. 7 and 8, respectively).

[10] = test system: Lactobacillus; experiment: as above; assay type: cell-based, Lactobacillus spp.
Procedure: as §8

[11] = test system: synthetic community of C. innocuum, E. coli, E. faecalis, and K. pneumoniae; experiment: Mixed-batch culture of synthetic community treated with Dox in second generation; assay type: cell-based; settings: Dox 100 μM added in second generation
Procedure: We next performed a mixed-batch culture experiment. (See FIGS. 10A and 10B). We prepared a synthetic community by combining cultures of C. innocuum, E. coli, E. faecalis, and K. pneumoniae. We cultured the synthetic community and allowed community formation in a first generation. Subsequently, we added Dox at a concentration of 100 μM and monitored the growth of the members of the synthetic community after treatment/disturbance in a second generation. We then cultured the synthetic community though resiliency in a third generation.
(See FIGS. 10B, middle panel).

[12] = test system: mixed-microbial communities of C. innocuum, Lactobacillus sp., E. faecalis, E. coli, and K. pneumoniae; experiment: Mixed-microbial communities C1-C5 in continuous anaerobic batch culture exposed to Dox in generation 2; assay type: cell-based
Procedure: FIG. 11A, FIG. 11B, FIG. 11C, FIG. 11D, and FIG. 11E. […] C1 began with even content of model strains of C innocuum^S, Lactobacillus^S sp., E. faecalisR, E. coli^R*, and K. pneumoniae^R*. C2 included less E. faecalis^R. C3 included less E. coli^R* . C4 included less K. pneumoniae^R*, and C5 included less E. coli^R* and K. pneumoniae^R*. The bacterial communities were grown in continuous batch culture and exposed to different concentrations Dox in generation 2.
The impacts of doxorubicin concentration and microbial community membership (and associated function) on the reduction of bioactive drug and associated microbial community resiliency were investigated in vitro in continuous anaerobic batch culture. Optical density measurements coupled with 16S rRNA gene amplicon sequencing analysis were used to estimate relative bacterial growth and a spectrophotometric assay was used to measure doxorubicin concentration. […] C1 began with even content of model strains of C. innocuum^S, Lactobacillus^S sp., E. faecalis^R, E. coli^R*, and K. pneumoniae^R*. C2 included less E. faecalis^R. C3 included less E. coli^R*. C4 included less K. pneumoniae^R*, and C5 included less E. coli^R* and K. pneumoniae^R*. The bacterial communities were grown in continuous batch culture and exposed to different concentrations Dox in generation 2.
C1, C2, and C3, may have been enhanced in communities with greater bacterial diversity. (See FIGS. 11A, 11B, and 11C, and compare C1 to C2 and C3, at least for the medium concentration). […] (See FIG. 11D, C4). […] (See FIG. 11E, C5). […] (See FIGS. 11A, 11B, and 11C, C1, C2, and C3, generation 3). […] Thus, microbial community membership (and associated function) impacted the rate of doxorubicin transformation, which, in turn, may confer protective effects on drug-sensitive members in gut-microbial communities.

[13] = test system: K. pneumoniae; experiment: Modified resting cell assay with gentamicin; assay type: cell-based, Klebsiella pneumoniae; settings: 10 or 50 μm gentamicin, anaerobic, 37° C., 24 h, controls
Procedure: FIG. 12A and FIG. 12B. Background gentamicin in culture media “fixes” K. pneumoniae to retain its biotransformation function despite thwarting cell growth. FIG. 12A: K. pneumoniae were first grown anaerobically at 37° C. in media in the presence of doxorubicin for 24 h (i.e., so initial biotransformation took place). Cultures were centrifugated into pellets, which were washed with buffer solution and resuspended in new media containing 100 μm doxorubicin and 0, 10, or 50 μm gentamicin. Inoculum was transferred to positive controls (i.e., with doxorubicin and same gentamicin treatment) and negative controls (i.e., contained doxorubicin, but no gentamicin). All samples were incubated anaerobically at 37° C. for 24 h and bacterial growth and final doxorubicin concentration (i.e., barplot) were determined. […] The two tubes on the far right are control growth media and doxorubicin-containing growth media (i.e., red color intensity corresponds to doxorubicin concentration in solution).
In a modified resting cell assay, we have shown that the biotransformation function can be harnessed without dependency on cell division. (See FIGS. 12A and 12B). Thus, it may be possible to “fix” K. pneumoniae in a form that enzymatically transforms Dox without presenting risk for in vivo colonization/growth. […]

[14] = spent media of E. coli and K. pneumoniae, Dox 4.1±2.5 μM and 4.4±0.9
[15] = spent media of E. faecalis, Dox 48.4±0.8 μM

`COc1cccc2c1C(=O)c1c(O)c3c(c(O)c1C2=O)C[C@@](O)(C(=O)CO)C[C@@H]3O[C@H]1C[C@H](N)[C@H](O)[C@H](C)O1` [Dox, doxorubicin] was tested, and the “Growth after 25 hours” value ([1]; Dox 100 μM) was “did not observe any growth”, the “Dox concentration at which delayed growth was observed” value ([1]; monoculture) was ≤ 10 µM and the “Sensitivity to Dox” value ([1]; monoculture) was “highly sensitive”. The “Growth after 25 hours” value ([2]; Dox 100 μM) was “did not observe any growth”, the “Dox concentration at which delayed growth was observed” value ([2]; monoculture) was ≤ 10 µM and the “Sensitivity to Dox” value ([2]; monoculture) was “highly sensitive”. The “Resistance to Dox” value [3] was “resistant to Dox”, the “Resistance to Dox” value [4] was “resistant” and the “Resistance to Dox” value [5] was “resistant”. For the same compound, the “Change of Dox concentration in culture” value ([6]; E. coli culture, absorption at λ480) was “reduced Dox concentration in culture”, the “Dox concentration in the 50% spent media” value ([6]; E. coli grown with initial 250 μM Dox) was 4.1 ± 2.5 µM and the “Change of Dox concentration in culture” value ([7]; K. pneumoniae culture, absorption at λ480) was “reduced Dox concentration in culture”. For the same compound, the “Dox concentration in the 50% spent media” value ([7]; K. pneumoniae grown with initial 250 μM Dox) was 4.4±0.9, the “Change of Dox concentration in culture” value ([8]; E. faecalis culture, absorption at λ480) was “did not reduce the Dox concentration in culture” and the “Dox concentration in the 50% spent media” value ([8]; E. faecalis grown with initial 100 μM Dox) was 48.4±0.8. For the same compound, the “Growth in 50% spent media” value [9, 14] was “able to grow”, the “Growth in 50% spent media” value [9, 15] was “unable to grow” and the “Growth in 50% spent media” value [10, 14] was “able to grow”. The “Growth in 50% spent media” value [10, 15] was “unable to grow”, the “Growth of Dox-sensitive C. innocuum in synthetic community” value [11] was “grew only following doxorubicin transformation” and the “Transformation of Dox by bacterial communities” value ([12]; communities containing E. coli and lacking K. pneumoniae (C4)) was “at a slower rate”. The “Transformation of doxorubicin by bacterial communities” value ([12]; communities containing E. coli or K. pneumoniae) was “rapid transformation”, the “Transformation of Dox by bacterial communities” value ([12]; communities without either K. pneumoniae or E. coli (C5)) was “not able to enzymatically transform Dox” and the “C. innocuum growth in mixed communities” value ([12]; generation 2, medium and high concentrations of doxorubicin) was “not detected in all cultures”.
gentamicin was tested, and the “Effect on K. pneumoniae growth” value [13] was “stalled K. pneumoniae growth”.
